This is an account of results in patent US20230348401A1, “Inhibitors of Glucose-6-phosphate Dehydrogenase and Uses Thereof” (The Trustees of Princeton University, priority 2020, published 2023).

One test addresses G6PD (Homo sapiens, UniProt P11413). The experiment in a line: G6PD enzymatic activity by diaphorase-coupled assay.
The test system of the next test is naïve CD8+ T cells. The experiment in a line: T cell activation, proliferation and viability (flow cytometry). The format is cell-based, mouse. Here is the method:
The functional consequences of oxPPP inhibition were next explored using G6PDi-1 in T cells. To test the effect of G6PDi-1 on activation and proliferation, naïve CD8+ T cells were isolated from spleen and activated in vitro with plate-bound αCD3/αCD28 and IL-2. Activation was evaluated by flow cytometry analysis of surface markers CD69 (levels rapidly rise upon activation) and CD25 (usually peaking at 24-48 hours post-activation), and cell size, which increases over the first 24 hours post-activation. To quantify proliferation, naïve cells were stained with […] (CTV) and dye dilution was measured by flow cytometry at day 4 post-activation.
To analyze cell surface markers expression, cells were collected, washed with PBS and stained with the viability dye Live/Dead Aqua. Cells were then washed with staining buffer and stained for surface markers: CD4 (APC-Cy7, clone RM4-5,), CD8a (PerCP-Cy5.5, clone 53-6.7), CD25 (APC, clone PC61), CD44 (PE-Cy7, clone IM7), CD62L (PE, clone MEL-14) CD69 (FITC, clone H1.2F3), for T cells; CD11b (APC, clone M1/70 and F4/80 (FITC, clone BM8) for macrophages.
To analyze proliferation, naïve CD8 T cells were stained with CTV dye and either maintained in a naïve state with IL7 or stimulated with αCD3/αCD28 + recombinant IL-2 in the presence of increasing concentrations of G6PDi-1. Cells were refed at days 2 and 3 post-stimulation, and proliferation was measured at day 4 post-activation. Cells were collected, washed with staining buffer and stained with the viability dye propidium iodide.
(In general: In flow cytometry, cells or beads pass a laser one at a time.)

A further test deals with CD8+ and CD4+ T cells. Kind of test: Intracellular ROS (CellROX green). As to conditions: two hours. It is filed as cell-based, mouse. As for the experimental part:
For measuring intracellular ROS levels, cells were incubated for 2 hours in the presence of increasing concentrations of G6PDi-1 and then stained for ROS and viability using CellROX Green Flow Cytometry Assay Kit following manufacturer instructions. In some experiments, n-acetyl cysteine (1 mM), galactose oxidase (0.045 U/mL) + galactose (500 µM), or potassium superoxide (0.5 µg/mL) were added to the culture media at the same time the drug and/or PMA and ionomycin were added. All flow cytometry was analyzed with an LSR II (BDbiosciences) using standard filter sets and FCS express 6 flow cytometry software (De Novo Software).

Test [1] deals with bone marrow derived macrophages. The experiment in a line: Intracellular cytokines in bone marrow-derived macrophages. The format is cell-based, mouse. Here is the method:
Mouse bone marrow monocyte/macrophage progenitors were isolated from femur and tibia and cultured in BMM media (DMEM supplemented with 10% FBS, 20% L929-conditioned media, 100 U/ml penicillin, and 100 µg/ml streptomycin). Expression of CD11b and F4/80 was checked by flow cytometry after 6 days in culture. Mature macrophages were either maintained in BMM media (M0 macrophages) or stimulated overnight with LPS (100 ng/mL) + IFNγ (20 ng/mL) for M1 activation or IL-4 (20 ng/mL) for M2 activation.
To analyze intracellular cytokines, active T cells were re-stimulated with PMA (20 ng/ml) and ionomycin (1 µg/ml) in the presence of GolgiStop and increasing concentrations of G6PDi-1. After a 6-hour incubation period, cells were collected, washed with PBS and stained with the viability dye Live/Dead Aqua. Cells were then washed with staining buffer and stained for surface markers: CD4 (APC-Cy7, clone RM4-5,), CD8a (PerCP-Cy5.5, clone 53-6.7). Cells were then fixed and permeabilized and stained for intracellular cytokines: IFN-γ (FITC, clone XMG1.2), TNFα (PE-Cyanine7, clone MP6-XT22) and IL-2 (PE, clone JES6-5H4). To analyze intracellular cytokines, mature macrophages were stimulated with LPS (100 ng/mL) + IFNγ (20 ng/mL) in the presence of GolgiStop and increasing concentrations of G6PDi-1. […]

In test [2] the test system is active CD8+ or CD4+ cells. Kind of test: Intracellular cytokines in active T cells after PMA and ionomycin. It is filed as cell-based, mouse. As for the experimental part: To analyze intracellular cytokines, active T cells were re-stimulated with PMA (20 ng/ml) and ionomycin (1 µg/ml) in the presence of GolgiStop and increasing concentrations of G6PDi-1. After a 6-hour incubation period, cells were collected, washed with PBS and stained with the viability dye Live/Dead Aqua. Cells were then washed with staining buffer and stained for surface markers: CD4 (APC-Cy7, clone RM4-5,), CD8a (PerCP-Cy5.5, clone 53-6.7). Cells were then fixed and permeabilized and stained for intracellular cytokines: IFN-γ (FITC, clone XMG1.2), TNFα (PE-Cyanine7, clone MP6-XT22) and IL-2 (PE, clone JES6-5H4). To analyze intracellular cytokines, mature macrophages were stimulated with LPS (100 ng/mL) + IFNγ (20 ng/mL) in the presence of GolgiStop and increasing concentrations of G6PDi-1. After a 6-hour incubation period, cells were collected, washed with PBS and stained with the viability dye Live/Dead Aqua. Cells were then fixed and permeabilized and stained for intracellular cytokines: TNFα (PE-Cyanine7, clone MP6-XT22) and IL-10 (V450, clone JES5-16E3).

G6PD, sequence (P11413 28-515): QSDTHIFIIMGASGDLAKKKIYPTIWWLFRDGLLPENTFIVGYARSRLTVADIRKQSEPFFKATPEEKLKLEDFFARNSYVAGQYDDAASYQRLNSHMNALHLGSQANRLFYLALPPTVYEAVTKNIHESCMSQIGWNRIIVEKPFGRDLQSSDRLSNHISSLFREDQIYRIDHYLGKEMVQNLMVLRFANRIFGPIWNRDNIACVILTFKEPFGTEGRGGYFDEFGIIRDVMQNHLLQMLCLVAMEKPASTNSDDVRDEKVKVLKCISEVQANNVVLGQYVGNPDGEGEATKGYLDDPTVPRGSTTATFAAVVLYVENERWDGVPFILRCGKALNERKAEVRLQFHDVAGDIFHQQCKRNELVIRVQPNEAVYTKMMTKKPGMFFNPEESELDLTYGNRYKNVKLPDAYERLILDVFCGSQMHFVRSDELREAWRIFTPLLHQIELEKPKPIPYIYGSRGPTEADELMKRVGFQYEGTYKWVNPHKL

As usually defined, the IC50 is the concentration at which inhibition is half-maximal. In the case of `N#Cc1cc(Nc2ncc3c(n2)CCCCC3=O)cs1` [Compound 2, 4-([5-oxo-6H,7H,8H,9H-cyclohepta[d]pyrimidin-2-yl]amino)thiophene-2-carbonitrile], the “mode of binding to G6PD” value on G6PD (competition assays against both substrates, in vitro dilution experiments) is “non-competitively and reversibly”. Besides, the IC50 on G6PD (read-out: IC50 (half-maximal inhibitory constant) against human G6PD, coupled enzymatic assay, recombinant human enzyme) was determined as 0.07 µM. In addition, in the test on naïve CD8+ T cells (CD4+ T cells), the “proliferation of CD4+ T cells” value is reported as “minimal effect”. For the same molecule, the viability entry in the test with naïve CD8+ T cells (CD8+ T cells) was “minimal effect”. For the same molecule, in the test on naïve CD8+ T cells (CD8+ T cells, day 4 post-activation), the activation-dependent proliferation entry is “minimal effect”. Moreover, the “upregulation of activation markers and activation-dependent increase in cell size” value in the test on naïve CD8+ T cells (CD8+ T cells, αCD3/αCD28 and IL-2) is “did not alter”. In the test on CD8+ and CD4+ T cells, the reactive oxygen species entry is given as “elevated reactive oxygen species”. The macrophage cytokine production entry in test [1] (classically activated macrophages (MΦ-1)) was “minimally affecting”. Also, the “NADPH, LPS-induced pro-inflammatory cytokine production, iNOS upregulation” value in test [1] (macrophages) is “did not decrease”. Also, in test [2] (CD8+ and CD4+ T cells, PMA and ionomycin, 6 h), the cytokine production entry was “blocked cytokine production”. Moreover, the “IFNγ mRNA” value in test [2] (active CD8+ T cells) is “decreased”.
